Literature values in patent publication US9849196B2, “Methods and compositions for altering photophysical properties of fluorophores via proximal quenching” (Cornell University, priority 2009, dated 2017).

Conditions: background statement

| Compound | solubility in aqueous solutions |
| --- | --- |
| O=[N+]([O-])c1ccc(CO)cc1 [NBA, p-nitrobenzyl alcohol] | highly insoluble |
| Cc1c(C)c2c(c(C)c1O)CCC(C)(C(=O)O)O2 (stereo not drawn) [Trolox] | highly insoluble |
| C1=CC=CC=CC=C1 [COT, cyclooctatetraene] | highly insoluble |
